# Assay results from patent US12528814B2, “Bifunctional degraders of interleukin-1 receptor-associated kinases and therapeutic use thereof” (NURIX THERAPEUTICS, INC., priority 2020, dated 2026).
# Like-named read-outs stand apart in the source and are kept apart here.
# Legend:
# IRAK4 [1] = target: T1, IRAK4 (Homo sapiens (Human), UniProt Q9NWZ3); test: IRAK4 Degradation HiBiT Assay; conditions: HiBiT-tagged Jurkat cells, 4 hrs; for Dmax: Jurkat; for DC50: read-out: Cellular IRAK4 HiBiT: DC50
# Target sequence in this assay (Q9NWZ3 whole entry): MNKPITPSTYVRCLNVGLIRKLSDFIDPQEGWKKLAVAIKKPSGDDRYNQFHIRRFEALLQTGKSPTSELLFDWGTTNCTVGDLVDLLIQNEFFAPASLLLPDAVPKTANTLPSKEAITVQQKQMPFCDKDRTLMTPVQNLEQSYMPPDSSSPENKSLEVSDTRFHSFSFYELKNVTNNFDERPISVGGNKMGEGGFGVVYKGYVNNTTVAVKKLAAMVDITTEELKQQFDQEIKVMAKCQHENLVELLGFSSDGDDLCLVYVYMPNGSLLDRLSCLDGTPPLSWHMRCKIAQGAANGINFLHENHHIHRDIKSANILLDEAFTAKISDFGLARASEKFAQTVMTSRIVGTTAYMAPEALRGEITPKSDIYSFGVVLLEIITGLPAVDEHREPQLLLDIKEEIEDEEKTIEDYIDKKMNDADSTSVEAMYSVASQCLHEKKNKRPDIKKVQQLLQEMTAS
# Description: Compound dilution series (11-point, 3.16-fold dilutions in DMSO, columns 1-11 and 12-22) at 500× the final required concentrations were prepared in Labcyte LDV 384-well plates (cat. no. LP-0200) using a Labcyte Echo 550 Liquid Handler. The 500× solutions ranged from 5 mM to 0.5 μM (final assay concentration range 10 μM to 0.1 nM). Using the Echo, the 500× solutions were stamped into white, 384-well assay plates (Corning, cat. no. 3570) at 60 nL/well. […] C-terminal HiBiT-tagged Jurkat cells (polyclonal cell line or clone 8D5) were plated at 1×10^6 cells/mL, 30 μL/well (3×10^4 cells/well) in complete RPMI (10% FBS, 1% L-glutamine). Cells were incubated for 4 hrs at 32° C./6% CO2.
# Following incubation, 30 uL of complete Nano-Glo HiBiT Lytic Detection Reagent (Nano-Glo HiBiT Lytic Buffer with 1:50 Nano-Glo HiBiT Lytic Substrate and 1:100 LgBiT Protein; Promega cat. no. N3040) was added. Cells were further incubated for 10 min at room temperature (RT). Luminescence units (LU) were read on an EnVision plate reader (Perkin Elmer, 0.1 sec per well). Percent IRAK4 remaining per sample was calculated as follows:
# Using Graphpad Prism, % IRAK4 remaining values were plotted as a function of compound concentration.
# IRAK4 [2] = target: T1, IRAK4; test: IRAK4 Biochemical HTRF Kinase Assay; conditions: read-out: IRAK4 HTRF biochemical: IC50
# Outline: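 IC50 values derive from non-linear regression of sixteen concentrations in duplicate. Kinase reaction ran 90 min at ambient temperature after adding 5 μM STK-S1 substrate, 10 mM ATP and 10 mM MgCl2 (reaction-solution levels, pre-dilution to 10 μl); phospho-peptide detected by HTRF after 60 min.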
# Target sequence in this assay (Q9NWZ3 whole entry, species assumed): as the sequence (Q9NWZ3 whole entry) above
# [3] = read-out: Cellular IRAK4 HiBiT: Dmax, Table 4
# [4] = read-out: Cellular IRAK4 HiBiT: Dmax, Table 5, multiple runs
smiles,measurement,setting,value
"Cc1ncsc1-c1ccc([C@H](C)NC(=O)[C@@H]2C[C@@H](O)CN2C(=O)[C@@H](NC(=O)CCCCCCCCCC(=O)N2CCN(c3nnc(-c4cnc(-c5ccc6cc(C#N)cnn56)cc4NC(C)C)s3)CC2)C(C)(C)C)cc1 [Example 38, (2S,4R)-1-((S)-2-(11-(4-(5-(6-(3-cyanopyrrolo[1,2-b]pyridazin-7-yl)-4-(isopropylamino)pyridin-3-yl)-1,3,4-thiadiazol-2-yl)piperazin-1-yl)-11-oxoundecanamido)-3,3-dimethylbutanoyl)-4-hydroxy-N—((S)-1-(4-(4-methylthiazol-5-yl)phenyl)ethyl)pyrrolidine-2-carboxamide]",Dmax,IRAK4 [1]; [3],34%
same,Dmax,IRAK4 [1]; [4],34%
same,DC50,IRAK4 [1]; Table 4,128 nM
same,DC50,"IRAK4 [1]; Table 5, multiple runs",128 nM
same,IC50,IRAK4 [2]; Table 4,10.4 nM
same,IC50,"IRAK4 [2]; Table 5, multiple runs",10.4 nM
"Cc1ncsc1-c1ccc(CNC(=O)[C@@H]2C[C@@H](O)CN2C(=O)[C@@H](NC(=O)C2(F)CC2)C(C)(C)C)c(OCC(=O)N2CCC3(CC2)CCN(c2nnc(-c4cnc(-c5ccc6cc(C#N)cnn56)cc4NC(C)C)s2)CC3)c1 [Example 83, (2S,4R)—N-(2-(2-(9-(5-(6-(3-cyanopyrrolo[1,2-b]pyridazin-7-yl)-4-(isopropylamino)pyridin-3-yl)-1,3,4-thiadiazol-2-yl)-3,9-diazaspiro[5.5]undecan-3-yl)-2-oxoethoxy)-4-(4-methylthiazol-5-yl)benzyl)-1-((S)-2-(1-fluorocyclopropane-1-carboxamido)-3,3-dimethylbutanoyl)-4-hydroxypyrrolidine-2-carboxamide]",Dmax,IRAK4 [1]; [4],109%
same,DC50,"IRAK4 [1]; Table 5, multiple runs",319 nM
same,IC50,"IRAK4 [2]; Table 5, multiple runs",6.8 nM
"CNc1cc(-c2ccc3cc(C#N)cnn23)ncc1-c1nnc(C23CCC(NC(=O)CCCC(=O)N[C@H](C(=O)N4C[C@H](O)C[C@H]4C(=O)NCc4ccc(-c5scnc5C)cc4)C(C)(C)C)(CC2)CC3)s1 [Example 141, N1-(4-(5-(6-(3-cyanopyrrolo[1,2-b]pyridazin-7-yl)-4-(methylamino)pyridin-3-yl)-1,3,4-thiadiazol-2-yl)bicyclo[2.2.2]octan-1-yl)-N5-((S)-1-((2S,4R)-4-hydroxy-2-((4-(4-methylthiazol-5-yl)benzyl)carbamoyl)pyrrolidin-1-yl)-3,3-dimethyl-1-oxobutan-2-yl)glutaramide]",Dmax,IRAK4 [1]; [4],133%
same,DC50,"IRAK4 [1]; Table 5, multiple runs",1910 nM
same,IC50,"IRAK4 [2]; Table 5, multiple runs",1.4 nM
"CNc1cc(-c2ccc3cc(C#N)cnn23)ncc1-c1nnc(N2CCC(NC(=O)CCC(=O)N[C@H](C(=O)N3C[C@H](O)C[C@H]3C(=O)N[C@@H](C)c3ccc(-c4scnc4C)cc3)C(C)(C)C)CC2)s1 [Example 158, N1-(1-(5-(6-(3-cyanopyrrolo[1,2-b]pyridazin-7-yl)-4-(methylamino)pyridin-3-yl)-1,3,4-thiadiazol-2-yl)piperidin-4-yl)-N4—((S)-1-((2S,4R)-4-hydroxy-2-(((S)-1-(4-(4-methylthiazol-5-yl)phenyl)ethyl)carbamoyl)pyrrolidin-1-yl)-3,3-dimethyl-1-oxobutan-2-yl)succinamide]",Dmax,IRAK4 [1]; [4],74%
same,DC50,"IRAK4 [1]; Table 5, multiple runs",1210 nM
same,IC50,"IRAK4 [2]; Table 5, multiple runs",1.6 nM
"CNc1cc(-c2ccc3cc(C#N)cnn23)ncc1-c1nnc([C@H]2CC[C@H](NC(=O)CCOCCOCCOCCNc3cccc4c3C(=O)N(C3CCC(=O)NC3=O)C4=O)CC2)s1 (some centres unmarked) [Example 70, N-((1r,4r)-4-(5-(6-(3-cyanopyrrolo[1,2-b]pyridazin-7-yl)-4-(methylamino)pyridin-3-yl)-1,3,4-thiadiazol-2-yl)cyclohexyl)-3-(2-(2-(2-((2-(2,6-dioxopiperidin-3-yl)-1,3-dioxoisoindolin-4-yl)amino)ethoxy)ethoxy)ethoxy)propenamide]",Dmax,IRAK4 [1]; [3],68%
same,Dmax,IRAK4 [1]; [4],100%
same,DC50,IRAK4 [1]; Table 4,6.3 nM
same,DC50,"IRAK4 [1]; Table 5, multiple runs",10.8 nM
same,IC50,IRAK4 [2]; Table 4,0.86 nM
same,IC50,"IRAK4 [2]; Table 5, multiple runs",0.8 nM
"CC(C)Nc1cc(-c2ccc3cc(C#N)cnn23)ncc1-c1nnc(N2CCN(CC3CCN(c4ccc(C(=O)N(C)C5CCC(=O)NC5=O)cc4)CC3)CC2)s1 (centres unmarked) [Example 34, 4-(4-((4-(5-(6-(3-cyanopyrrolo[1,2-b]pyridazin-7-yl)-4-(isopropylamino)pyridin-3-yl)-1,3,4-thiadiazol-2-yl)piperazin-1-yl)methyl)piperidin-1-yl)-N-(2,6-dioxopiperidin-3-yl)-N-methylbenzamide]",Dmax,IRAK4 [1]; [3],85%
same,Dmax,IRAK4 [1]; [4],85%
same,DC50,IRAK4 [1]; Table 4,326 nM
same,DC50,"IRAK4 [1]; Table 5, multiple runs",326 nM
same,IC50,IRAK4 [2]; Table 4,2 nM
same,IC50,"IRAK4 [2]; Table 5, multiple runs",2 nM
"N#Cc1cnn2c(-c3cc(NC4CCOCC4)c(-c4nnc(C56CCC(NC(=O)CCOCCOCCNc7cccc8c7C(=O)N(C7CCC(=O)NC7=O)C8=O)(CC5)CC6)s4)cn3)ccc2c1 (centres unmarked) [Example 1, N-(4-(5-(6-(3-cyanopyrrolo[1,2-b]pyridazin-7-yl)-4-((tetrahydro-2H-pyran-4-yl)amino)pyridin-3-yl)-1,3,4-thiadiazol-2-yl)bicyclo[2.2.2]octan-1-yl)-3-(2-(2-((2-(2,6-dioxopiperidin-3-yl)-1,3-dioxoisoindolin-4-yl)amino)ethoxy)ethoxy)propanamide]",Dmax,IRAK4 [1]; [3],65%
same,Dmax,IRAK4 [1]; [4],60%
same,DC50,IRAK4 [1]; Table 4,23.8 nM
same,DC50,"IRAK4 [1]; Table 5, multiple runs",22.9 nM
same,IC50,IRAK4 [2]; Table 4,1.8 nM
same,IC50,"IRAK4 [2]; Table 5, multiple runs",2 nM
"CNc1cc(-c2ccc3cc(C#N)cnn23)ncc1-c1nnc([C@H]2CC[C@H](NC(=O)C3CCN(c4ccc5c(c4)C(=O)N(C4CCC(=O)NC4=O)C5=O)CC3)CC2)s1 (some centres unmarked) [Example 152, N-((1r,4r)-4-(5-(6-(3-cyanopyrrolo[1,2-b]pyridazin-7-yl)-4-(methylamino)pyridin-3-yl)-1,3,4-thiadiazol-2-yl)cyclohexyl)-1-(2-(2,6-dioxopiperidin-3-yl)-1,3-dioxoisoindolin-5-yl)piperidine-4-carboxamide]",Dmax,IRAK4 [1]; [4],113%
same,DC50,"IRAK4 [1]; Table 5, multiple runs",63 nM
same,IC50,"IRAK4 [2]; Table 5, multiple runs",0.9 nM
"CNc1cc(-c2ccc3cc(C#N)cnn23)ncc1-c1nnc(C23CCC(NC(=O)CN4CCC5(CC4)CN(c4ccc6c(c4)C(=O)N(C4CCC(=O)NC4=O)C6=O)C5)(CC2)CC3)s1 (centres unmarked) [Example 104, N-(4-(5-(6-(3-cyanopyrrolo[1,2-b]pyridazin-7-yl)-4-(methylamino)pyridin-3-yl)-1,3,4-thiadiazol-2-yl)bicyclo[2.2.2]octan-1-yl)-2-(2-(2-(2,6-dioxopiperidin-3-yl)-1,3-dioxoisoindolin-5-yl)-2,7-diazaspiro[3.5]nonan-7-yl)acetamide]",Dmax,IRAK4 [1]; [4],77%
same,DC50,"IRAK4 [1]; Table 5, multiple runs",49.9 nM
same,IC50,"IRAK4 [2]; Table 5, multiple runs",1.5 nM
"CNc1cc(-c2ccc3cc(C#N)cnn23)ncc1-c1nnc(N2CCN(C(=O)C[C@H](NC(=O)[C@@H]3C[C@@H](O)CN3C(=O)[C@@H](NC(=O)C3(F)CC3)C(C)(C)C)c3ccc(-c4scnc4C)cc3)CC2)s1 [Example 160, (2S,4R)—N—((S)-3-(4-(5-(6-(3-cyanopyrrolo[1,2-b]pyridazin-7-yl)-4-(methylamino)pyridin-3-yl)-1,3,4-thiadiazol-2-yl)piperazin-1-yl)-1-(4-(4-methylthiazol-5-yl)phenyl)-3-oxopropyl)-1-((S)-2-(1-fluorocyclopropane-1-carboxamido)-3,3-dimethylbutanoyl)-4-hydroxypyrrolidine-2-carboxamide]",Dmax,IRAK4 [1]; [4],97%
same,DC50,"IRAK4 [1]; Table 5, multiple runs",85.8 nM
same,IC50,"IRAK4 [2]; Table 5, multiple runs",1.1 nM
"CC(C)Nc1cc(-c2ccc3cc(C#N)cnn23)ncc1-c1nnc(N2CCN(C3CCN(Cc4ccc5c(c4)C(=O)N(C4CCC(=O)NC4=O)C5=O)CC3)CC2)s1 (centres unmarked) [Example 18, 7-(5-(5-(4-(1-((2-(2,6-dioxopiperidin-3-yl)-1,3-dioxoisoindolin-5-yl)methyl)piperidin-4-yl)piperazin-1-yl)-1,3,4-thiadiazol-2-yl)-4-(isopropylamino)pyridin-2-yl)pyrrolo[1,2-b]pyridazine-3-carbonitrile]",Dmax,IRAK4 [1]; [3],88%
same,Dmax,IRAK4 [1]; [4],87%
same,DC50,IRAK4 [1]; Table 4,123 nM
same,DC50,"IRAK4 [1]; Table 5, multiple runs",113 nM
same,IC50,IRAK4 [2]; Table 4,1.9 nM
same,IC50,"IRAK4 [2]; Table 5, multiple runs",1.9 nM
"CNc1cc(-c2ccc3cc(C#N)cnn23)ncc1-c1nnc([C@H]2CC[C@H](NC(=O)CCC(=O)N[C@H](C(=O)N3C[C@@H](O)C[C@H]3C(=O)NCc3ccc(-c4scnc4C)cc3)C(C)(C)C)CC2)s1 [Example 151, N1-((1r,4S)-4-(5-(6-(3-cyanopyrrolo[1,2-b]pyridazin-7-yl)-4-(methylamino)pyridin-3-yl)-1,3,4-thiadiazol-2-yl)cyclohexyl)-N4—((S)-1-((2S,4S)-4-hydroxy-2-((4-(4-methylthiazol-5-yl)benzyl)carbamoyl)pyrrolidin-1-yl)-3,3-dimethyl-1-oxobutan-2-yl)succinamide]",DC50,"IRAK4 [1]; Table 5, multiple runs",> 6980 nM
same,IC50,"IRAK4 [2]; Table 5, multiple runs",0.9 nM
"CNc1cc(-c2ccc3cc(C#N)cnn23)ncc1-c1nnc(C23CCC(NC(=O)[C@H]4C[C@H]4C(=O)N[C@H](C(=O)N4C[C@H](O)C[C@H]4C(=O)N[C@@H](C)c4ccc(-c5scnc5C)cc4)C(C)(C)C)(CC2)CC3)s1 (mixture of isomers) [Example 142, (1RS,2SR)—N1-(4-(5-(6-(3-cyanopyrrolo[1,2-b]pyridazin-7-yl)-4-(methylamino)pyridin-3-yl)-1,3,4-thiadiazol-2-yl)bicyclo[2.2.2]octan-1-yl)-N2—((S)-1-((2S,4R)-4-hydroxy-2-(((S)-1-(4-(4-methylthiazol-5-yl)phenyl)ethyl)carbamoyl)pyrrolidin-1-yl)-3,3-dimethyl-1-oxobutan-2-yl)cyclopropane-1,2-dicarboxamide]",Dmax,IRAK4 [1]; [4],115%
same,DC50,"IRAK4 [1]; Table 5, multiple runs",258 nM
same,IC50,"IRAK4 [2]; Table 5, multiple runs",1.9 nM
"CNc1cc(-c2ccc3cc(C#N)cnn23)ncc1-c1nnc([C@H]2CC[C@@H](NC(=O)CCOCCNc3ccc4c(c3)C(=O)N(C3CCC(=O)NC3=O)C4=O)CC2)s1 (some centres unmarked) [Example 115, N-((1s,4s)-4-(5-(6-(3-cyanopyrrolo[1,2-b]pyridazin-7-yl)-4-(methylamino)pyridin-3-yl)-1,3,4-thiadiazol-2-yl)cyclohexyl)-3-(2-((2-(2,6-dioxopiperidin-3-yl)-1,3-dioxoisoindolin-5-yl)amino)ethoxy)propanamide]",Dmax,IRAK4 [1]; [4],78%
same,DC50,"IRAK4 [1]; Table 5, multiple runs",44.7 nM
same,IC50,"IRAK4 [2]; Table 5, multiple runs",2.2 nM
